Experimental data from patent US10196365B2, “Quinazoline derivative, preparation method therefor, and pharmaceutical composition and application thereof” (ARROMAX PHARMATECH CO., LTD., priority 2014, dated 2019).
Marks after values point to notes of the source that are not given here.

Legend:
[1] = molecular target: Her-2 enzyme (Homo sapiens (Human), UniProt P04626); test: HTRF kinEASE TK in vitro kinase assay, Her-2; type: biochemical; conditions: 30 min enzyme reaction, read-out: IC50 against Her-2
[2] = tested on: A431 (human epithelial carcinoma cell lines); test: Growth inhibition test in tumor cells (CCK8), A431; type: cell-based; conditions: A-431, 72 h
[3] = tested on: A549 (human lung cancer cell lines); test: Growth inhibition test in tumor cells (CCK8), A549; type: cell-based; conditions: 72 h
[4] = tested on: HCC 827 (human non-small cell lung cancer cell line); test: Growth inhibition test in tumor cells (CCK8), HCC827; type: cell-based; conditions: HCC 827 cells, 72 h
[5] = molecular target: EGFR tyrosine kinase (Homo sapiens (Human), UniProt P00533); test: HTRF kinEASE TK in vitro kinase assay, EGFR; type: biochemical; conditions: 30 min enzyme reaction, read-out: IC50 against EGFR
[6] = tested on: NCI-H1975 nude mice transplanted tumor; test: In vivo pharmacodynamics evaluation, NCI-H1975 nude mice transplanted tumor; set-up: species or system BALB/c nude mice; conditions: gavage
Protocol: BALB/c nude mice, female, 6 to 7 weeks of age, weight 20 g±2 g, purchased from Shanghai silaike experimental animal Co. Ltd., SPF environment.
The logarithmic growth phase NCI-H1975 cells cultured in vitro were digested with trypsin, washed with PBS for three times, the cell survival rate was detected by trypan blue exclusion to be >90%, the cell concentration was adjusted to 1×10^7/mL with PBS, which was implanted subcutaneously in back forelimb of the nude mice with 0.2 mL/pcs under aseptic condition. After tumor formation, the tumor were cultured for two passages in vivo, the tumor were stripped out to sterile culture plate when growing to the volume of 300 to 500 mm^3, a small amount of PBS was added, the tumor tissue with vigorous growth were cut into about 1.5 mm^3 tumor blocks, inoculated in right armpit of the nude mice. The diameter of tumor was measured with vernier caliper, when the tumor grew to 100 to 200 mm^3, then the animal were randomly grouping, […], gavage administration, once a day or every other day, continuously administrated for 14 days (d14) and observed for 7 days (d22), the negative control group was administrated with the same amount of solvent (saline solution of 1% DMSO), during the period of administration and recovery, the body weight and tumor size of the nude mice were measured weekly 2 to 3 times. The tumor volume and relative tumor volume were calculated according to the measured data, and the calculation formula of the tumor volume (TV) was TV=1/2×a×b^2, of which a and b represent the tumor length and diameter respectively. The relative tumor volume (RTV) was calculated according to the measured results, and the calculation formula was: RTV=Vt/V0, wherein V0 represents the tumor volume at the beginning of the experiment, Vt represents the volume of the tumor each measured.

[7] = tested on: MDA-MB-453 (human breast cancer cell lines); test: Growth inhibition test in tumor cells (CCK8), MDA-MB-453; type: cell-based; conditions: MDA-MB-453 cells, 72 h
Protocol: Growth Inhibition Tests of a Series of Compounds in Different Tumor Cells
i. Cell lines: A431 (human epithelial carcinoma cell lines), A549 (human lung cancer cell lines), NCI H1975 (human non-small cell lung cancer cell lines (HCC), HCC 827 (human non-small cell lung cancer cell line), MDA-MB-453 (human breast cancer cell lines)
MDA-MB-453 cell line: 90% L15+10% FBS; trypsin (a 0.25% (W/V) solution was prepared with […], 0.53 mM EDTA was added);
i) Logarithmic growth phase cells were collected and counted, the cells were suspended again with complete medium,
ii) The cell concentration was adjusted to an appropriate concentration, inoculated to 96 holes, each of which with 100 μL cells suspension.
iii) The cells were incubated in a 37° C., 100% relative humidity and 5% CO2 incubator, for 24 h.
i) Logarithmic growth phase cells were collected and counted, the cells were suspended again with complete medium, the cell concentration was adjusted to an appropriate concentration (determined according to the results of cell density optimization test), inoculated to 96 plates, each of which with […] cells suspension. The cells were incubated in a 37° C., 100% relative humidity and 5% CO2 incubator for 24 h.
ii) The test compounds were diluted to the corresponding concentration stated by culture medium, and the cells were inoculated as 25 μL/hole. The final concentration of the compound was from 10 μM to 0 μM, with a gradient of 4 times, and 10 concentration points totally.
iii) The cells were incubated in a 37° C., 100% relative humidity, 5% CO2 incubator for 72 h.
iv) Absorbing the culture medium, the complete medium containing 10% CCK-8 was added and incubated in the incubator of 37° C. for 2-4 h.
v) After a slight shake, the absorbance at 450 nm was measured by SpectraMax M5 Microplate Reader, taking the absorbance at 650 nm as a reference, the inhibition rate was calculated.
The IC50 curve fitting was performed by using the software Graphpad Prism 5 and the calculation formula log (inhibitor) vs. response to calculate the IC50 value.

[8] = tested on: NCI H1975 (human non-small cell lung cancer cell lines); test: Growth inhibition test in tumor cells (CCK8), NCI-H1975; type: cell-based; conditions: 72 h

Sequence of EGFR tyrosine kinase (P00533 25-1210): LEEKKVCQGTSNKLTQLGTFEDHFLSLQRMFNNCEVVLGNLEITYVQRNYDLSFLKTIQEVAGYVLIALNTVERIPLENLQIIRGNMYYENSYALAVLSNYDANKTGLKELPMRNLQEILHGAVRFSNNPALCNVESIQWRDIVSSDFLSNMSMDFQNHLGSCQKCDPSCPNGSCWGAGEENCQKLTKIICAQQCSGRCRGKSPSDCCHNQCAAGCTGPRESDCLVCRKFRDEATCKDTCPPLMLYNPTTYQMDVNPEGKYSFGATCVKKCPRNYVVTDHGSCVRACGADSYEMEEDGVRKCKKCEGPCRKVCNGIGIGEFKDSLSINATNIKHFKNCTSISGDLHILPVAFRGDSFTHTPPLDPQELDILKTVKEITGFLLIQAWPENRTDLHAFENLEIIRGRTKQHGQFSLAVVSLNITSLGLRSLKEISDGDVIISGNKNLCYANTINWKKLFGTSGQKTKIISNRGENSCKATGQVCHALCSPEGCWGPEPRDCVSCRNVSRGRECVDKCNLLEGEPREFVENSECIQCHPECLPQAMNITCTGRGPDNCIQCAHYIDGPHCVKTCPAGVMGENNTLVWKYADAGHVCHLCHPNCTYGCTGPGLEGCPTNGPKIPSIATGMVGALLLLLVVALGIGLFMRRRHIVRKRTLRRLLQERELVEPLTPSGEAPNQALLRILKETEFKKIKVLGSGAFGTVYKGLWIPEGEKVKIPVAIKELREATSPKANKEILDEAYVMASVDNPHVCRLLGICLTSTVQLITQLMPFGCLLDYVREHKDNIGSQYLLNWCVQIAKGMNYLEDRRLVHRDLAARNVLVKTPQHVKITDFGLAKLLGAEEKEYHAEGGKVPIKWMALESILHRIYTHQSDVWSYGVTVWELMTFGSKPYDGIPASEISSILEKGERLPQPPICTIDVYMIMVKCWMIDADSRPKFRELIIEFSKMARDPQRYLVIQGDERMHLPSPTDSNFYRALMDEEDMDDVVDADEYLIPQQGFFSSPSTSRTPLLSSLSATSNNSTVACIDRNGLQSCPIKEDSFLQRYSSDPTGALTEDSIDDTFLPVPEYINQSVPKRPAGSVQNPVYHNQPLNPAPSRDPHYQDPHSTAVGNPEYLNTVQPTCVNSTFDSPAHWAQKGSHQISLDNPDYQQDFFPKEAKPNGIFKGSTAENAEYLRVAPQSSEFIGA
Sequence of Her-2 enzyme (P04626 23-1255): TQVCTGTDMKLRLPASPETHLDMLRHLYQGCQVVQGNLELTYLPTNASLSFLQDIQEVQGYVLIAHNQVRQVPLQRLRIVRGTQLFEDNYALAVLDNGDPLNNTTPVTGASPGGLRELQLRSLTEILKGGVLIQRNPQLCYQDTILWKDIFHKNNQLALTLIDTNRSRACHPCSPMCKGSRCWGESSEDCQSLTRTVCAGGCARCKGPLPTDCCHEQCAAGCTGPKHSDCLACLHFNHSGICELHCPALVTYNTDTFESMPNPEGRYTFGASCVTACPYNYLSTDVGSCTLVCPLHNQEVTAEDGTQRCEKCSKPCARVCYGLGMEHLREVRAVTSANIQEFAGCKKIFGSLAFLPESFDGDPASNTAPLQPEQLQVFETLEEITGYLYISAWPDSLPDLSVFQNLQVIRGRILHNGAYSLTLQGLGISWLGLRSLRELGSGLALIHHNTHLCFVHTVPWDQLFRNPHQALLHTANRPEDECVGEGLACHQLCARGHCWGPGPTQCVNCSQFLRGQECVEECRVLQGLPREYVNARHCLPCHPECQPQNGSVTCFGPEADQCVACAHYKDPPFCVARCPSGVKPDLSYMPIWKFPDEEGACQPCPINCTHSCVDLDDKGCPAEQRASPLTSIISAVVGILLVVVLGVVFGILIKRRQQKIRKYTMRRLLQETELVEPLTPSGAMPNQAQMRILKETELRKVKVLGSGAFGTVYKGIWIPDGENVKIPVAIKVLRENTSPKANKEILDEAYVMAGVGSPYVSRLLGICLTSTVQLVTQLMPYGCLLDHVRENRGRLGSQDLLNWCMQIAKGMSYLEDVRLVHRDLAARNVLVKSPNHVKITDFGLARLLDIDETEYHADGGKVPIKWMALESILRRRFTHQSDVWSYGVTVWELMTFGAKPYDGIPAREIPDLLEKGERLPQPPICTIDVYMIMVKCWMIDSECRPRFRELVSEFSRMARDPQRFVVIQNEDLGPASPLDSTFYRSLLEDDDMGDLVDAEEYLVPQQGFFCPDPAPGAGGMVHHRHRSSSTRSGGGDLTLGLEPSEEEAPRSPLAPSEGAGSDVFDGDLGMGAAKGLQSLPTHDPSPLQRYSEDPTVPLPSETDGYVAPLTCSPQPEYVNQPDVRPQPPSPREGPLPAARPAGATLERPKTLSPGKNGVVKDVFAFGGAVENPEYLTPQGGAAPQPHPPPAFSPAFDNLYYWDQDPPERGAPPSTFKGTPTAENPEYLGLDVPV

Row | Compound | IC50 [1] [nM] | IC50 [2] [nM] | IC50 [3] [nM] | IC50 [4] [nM] | IC50 [5] [nM] | IC50 [7] [nM] | Inhibition rate (%) d22 ([6]; 5 mg/kg (low dosage), qod) | RTV d22 ([6]; 5 mg/kg, qod) | T/C (%) d22 ([6]; 5 mg/kg, qod) [%] | Inhibition rate (%) d22 ([6]; 20 mg/kg (middle dosage), qod) | RTV d22 ([6]; 20 mg/kg, qod) | T/C (%) d22 ([6]; 20 mg/kg, qod) [%] | Inhibition rate (%) d22 ([6]; 80 mg/kg (high dosage), qod) | RTV d22 ([6]; 80 mg/kg, qod) | T/C (%) d22 ([6]; 80 mg/kg, qod) [%] | IC50 [8] [nM] | Inhibition rate (%) d22 ([6]; 5 mg/kg, qd) | RTV d22 ([6]; 5 mg/kg, qd) | T/C (%) d22 ([6]; 5 mg/kg, qd) [%]
1 | COCCCOc1cc2ncnc(Nc3ccc(F)c(Cl)c3)c2cc1NC(=O)/C=C/CN(C)C [Embodiment 1, (E)-N-(4-(3-chloro-4-fluorophenylamino)-7-(3-methoxypropoxy)quinazolin-6-yl)-4-(dimethylamino)but-2-enamide] | 39.3 |  | 6080 | 0.293 | 0.765 |  |  |  |  |  |  |  |  |  |  |  |  |  | 
2 | CCOCCOc1cc2ncnc(Nc3ccc(F)c(Cl)c3)c2cc1NC(=O)/C=C/CN(C)C [Embodiment 4, (E)-N-(4-(3-chloro-4-fluorophenylamino)-7-(2-ethoxyethoxy)quinazolin-6-yl)-4-(dimethylamino)but-2-enamide] | 42.1 | 1.53 | 7520 | 0.312 | 0.699 | 0.62 | 73.2** % | 2.00 ± 0.29 | 26.91 | 82.0** % | 1.39 ± 0.40 | 18.71 | 95.1*** % | 0.43 ± 0.05 | 5.75 |  |  |  | 
3 | COC[C@@H](C)Oc1cc2ncnc(Nc3ccc(F)c(Cl)c3)c2cc1NC(=O)/C=C/CN(C)C [Embodiment 2, (R,E)-N-(4-(3-chloro-4-fluorophenylamino)-7-(2-methoxy-1-methylethoxy)quinazolin-6-yl)-4-(dimethylamino)but-2-enamide] | 148 | 43 | 7560 |  |  |  |  |  |  |  |  |  |  |  |  | 49.9 |  |  | 

More lines, main results first:

Row | IC50 [1] [nM] | IC50 [2] [nM] | IC50 [3] [nM] | IC50 [4] [nM] | IC50 [5] [nM] | IC50 [7] [nM] | Compound | Inhibition rate (%) d22 ([6]; 5 mg/kg (low dosage), qod) | RTV d22 ([6]; 5 mg/kg, qod) | T/C (%) d22 ([6]; 5 mg/kg, qod) [%] | Inhibition rate (%) d22 ([6]; 20 mg/kg (middle dosage), qod) | RTV d22 ([6]; 20 mg/kg, qod) | T/C (%) d22 ([6]; 20 mg/kg, qod) [%] | Inhibition rate (%) d22 ([6]; 80 mg/kg (high dosage), qod) | RTV d22 ([6]; 80 mg/kg, qod) | T/C (%) d22 ([6]; 80 mg/kg, qod) [%] | IC50 [8] [nM] | Inhibition rate (%) d22 ([6]; 5 mg/kg, qd) | RTV d22 ([6]; 5 mg/kg, qd) | T/C (%) d22 ([6]; 5 mg/kg, qd) [%]
4 | 83.8 | 5.87 | 1840 | 0.55 | 1.54 |  | CC(C)OCCOc1cc2ncnc(Nc3ccc(F)c(Cl)c3)c2cc1NC(=O)/C=C/CN(C)C [Embodiment 6, (E)-N-(4-(3-chloro-4-fluorophenylamino)-7-(2-isopropoxyethoxy)quinazolin-6-yl)-4-(dimethylamino)but-2-enamide] |  |  |  |  |  |  |  |  |  |  |  |  | 
5 | 3.63 | 6.01 | 1440 | 0.587 | 0.771 | 1.43 | C#Cc1cccc(Nc2ncnc3cc(OCCOCC)c(NC(=O)/C=C/CN(C)C)cc23)c1 [Embodiment 10, (E)-N-(7-(2-ethoxyethoxy)-4-(3-ethynylphenylamino)quinazolin-6-yl)-4-(dimethylamino)but-2-enamide] |  |  |  |  |  |  |  |  |  | 45.5 |  |  | 
6 | 132 | 8.15 | 3140 | 0.555 | 2.85 |  | CCCOCCOc1cc2ncnc(Nc3ccc(F)c(Cl)c3)c2cc1NC(=O)/C=C/CN(C)C [Embodiment 5, (E)-N-(4-(3-chloro-4-fluorophenylamino)-7-(2-propoxyethoxy)quinazolin-6-yl)-4-(dimethylamino)but-2-enamide] |  |  |  |  |  |  |  |  |  |  |  |  | 
7 | 53.9 |  |  |  | 10.2 |  | CCOCCOc1cc2ncnc(Nc3ccc(OCc4ccccn4)c(Cl)c3)c2cc1NC(=O)/C=C/CN(C)C [Embodiment 12, (E)-N-(4-(3-chloro-4-(pyridin-2-ylmethoxy)phenylamino)-7-(2-ethoxyethoxy)quinazolin-6-yl)-4-(dimethylamino)but-2-enamide] |  |  |  | 78.7** % | 1.59 ± 0.33 | 21.41 | 90.5*** % | 0.70 ± 0.09 | 9.34 |  | 66.1** % | 2.47 ± 0.68 | 33.21
